In US6448263B1, “Treatment of insulin resistance with growth hormone secretagogues” (Pfizer Inc., priority 1997, dated 2002):
Structures can show the parent of a compound that is named as a salt.

Tested on: female Sprague-Dawley rats (Sham and Ovx)
Test: Female Rat Study: chronic oral treatment with a GHRP mimetic, non-fasting plasma insulin and metabolite levels
Assay type: in vivo
Details: non-fasting blood at sacrifice
Experimental: This study evaluates the effect of chronic treatment with a GHRP mimetic on weight, body composition and non-fasting plasma concentrations of glucose, insulin, lactate and lipids in estrogen-deficient and estrogenreplete female rats. Acute responsiveness of serum GH levels to i.v. administration of the GH releasing agent was assessed on the last day of dosing. Body weight was monitored weekly throughout the treatment period; additionally, body composition and plasma levels of glucose, insulin, lactate, cholesterol and triglycerides were assessed at the end of treatment.
Virgin female Sprague-Dawley rats were obtained from Charles River Laboratories (Wilmington, Mass.) and underwent bilateral ovariectomy (Ovx) or sham-surgery (Sham) at approximately 12 weeks of age. For sham surgeries, ovaries were exteriorized and replaced into the abdominal cavity. Following surgery the rats were housed individually in 20 cm×32 cm×20 cm cages under standard vivarium conditions (about 24° C. with about 12 hours light/12 hours dark cycle). All rats were allowed free access to water and a pelleted commercial diet (Agway ProLab 3000, Agway Country Food, Inc., Syracuse, N.Y.). The experiment was conducted in accordance with NIH Guidelines for the Care and Use of Laboratory Animals.
Approximately seven months post-surgery, Sham and Ovx rats were weighed and randomly assigned to groups. Rats were dosed daily by oral gavage with 1 mL of either vehicle (1% ethanol in distilled-deionized water), 0.5 mg/kg or 5 mg/kg of a growth hormone releasing agent for 90 days. Rats were weighed at weekly intervals throughout the study. Twenty-four hours after the last oral dose, the acute response of serum growth hormone (GH) to test agent was assessed by the following procedure. Rats were anesthetized with sodium pentobarbital 50 mg/kg. Anesthetized rats were weighed and a baseline blood sample (˜100 μl) was collected from the tail vein. Test agent (growth hormone releasing agent or vehicle) was then administered intravenously via the tail vein in 1 mL. Approximately ten minutes after injection, a second 100 μl blood sample was collected from the tail. Blood was allowed to clot at about 4° C., then centrifuged at 2000×g for about 10 minutes. Serum was stored at about −70° C. Serum growth hormone concentrations were determined by radioimmunoassay as previously described. Following this procedure, each anesthetized rat underwent whole body scanning by dual-energy X-ray absorptiometry (DEXA, Hologic QDR 1000/W, Waltham Mass.). A final blood sample was collected by cardiac puncture into heparinized tubes. Plasma was separated by centrifugation and stored frozen as described above.
Plasma insulin is determined by radioimmunoassay using a kit from Binax Corp. (Portland, Me.). The interassay coefficient of variation is ≦10%. Plasma triglycerides, total cholesterol, glucose and lactate levels are measured using Abbott VP™ and VP Super System® Autoanalyzer (Abbott Laboratories, Irving, Texas), using the A-Gent™ Triglycerides, Cholesterol and Glucose Test reagent systems, and a lactate kit from Sigma, respectively. The plasma insulin, triglycerides, total cholesterol and lactate lowering activity of a growth hormone releasing peptide (GHRP) or GHRP mimetic such as a compound of formula I, are determined by statistical analysis (unpaired t-test) with the vehicle-treated control group.

[1] = Ovx rats, 0.5 mg/kg daily oral gavage for 90 days
[2] = Ovx rats, 5.0 mg/kg daily oral gavage for 90 days
[3] = Sham rats, 0.5 mg/kg daily oral gavage for 90 days
[4] = Sham rats, 5.0 mg/kg daily oral gavage for 90 days

CN1N=C2CCN(C(=O)[C@@H](COCc3ccccc3)NC(=O)C(C)(C)N)C[C@@]2(Cc2ccccc2)C1=O [2-amino-N-[2-(3a-(R)-benzyl-2-methyl-3-oxo-2,3,3a,4,6,7-hexahydro-pyrazolo[4,3-c]pyridin-5-yl)-1-(R)-(benzyloxymethyl)-2-oxo-ethyl]-isobutyramide L-tartaric acid salt]
Cholesterol (mean plasma level) [1]: 92.5 mg/dL
Glucose (mean plasma level) [1]: 179.7 mg/dL
Insulin (mean plasma level) [1]: *78.7 uU/mL
Lactate (mean plasma level) [1]: 3.6 mg/dL
Triglyceride (mean plasma level) [1]: 181.9 mg/dL
Cholesterol (mean plasma level) [2]: 102.2 mg/dL
Glucose (mean plasma level) [2]: 177.2 mg/dL
Insulin (mean plasma level) [2]: *84.1 uU/mL
Lactate (mean plasma level) [2]: 3.1 mg/dL
Triglyceride (mean plasma level) [2]: 158.4 mg/dL
Cholesterol (mean plasma level) [3]: 95.4 mg/dL
Glucose (mean plasma level) [3]: *142.7 mg/dl
Insulin (mean plasma level) [3]: 94.9 uU/mL
Lactate (mean plasma level) [3]: 3.7 mg/dL
Triglyceride (mean plasma level) [3]: 219.6 mg/dL
Cholesterol (mean plasma level) [4]: *80.6 mg/dl
Glucose (mean plasma level) [4]: *139.9 mg/dl
Insulin (mean plasma level) [4]: 95.7 uU/mL
Lactate (mean plasma level) [4]: *3.2 mg/dl
Triglyceride (mean plasma level) [4]: 227.2 mg/dL
